Data reported in ChEMBL document CHEMBL2417495, “N-Methylanilide and N-methylbenzamide derivatives as phosphodiesterase 10A (PDE10A) inhibitors” (Bioorg Med Chem, 2013).
pIC50: −log10 of the molar value.

Columns and labels:
[1] = molecular target: T1, cAMP and cAMP-inhibited cGMP 3',5'-cyclic phosphodiesterase 10A (Homo sapiens, UniProt Q9Y233); experiment: Inhibition of PDE10A (unknown origin)
[2] = molecular target: T1, cAMP and cAMP-inhibited cGMP 3',5'-cyclic phosphodiesterase 10A; experiment: Inhibition of PDE10A (unknown origin) at 2 uM
Liver microsomes = experiment: Intrinsic clearance in human liver microsomes; type: ADME, Microsome
[3] = molecular target: cGMP-dependent 3',5'-cyclic phosphodiesterase (Homo sapiens) (UniProt O00408); experiment: Inhibition of PDE2 (unknown origin) at 2 uM
[4] = molecular target: 3',5'-cyclic-AMP phosphodiesterase 4D (Homo sapiens) (UniProt Q08499); experiment: Inhibition of PDE4D (unknown origin) at 2 uM
[5] = molecular target: cGMP-inhibited 3',5'-cyclic phosphodiesterase 3A (Homo sapiens) (UniProt Q14432); experiment: Inhibition of PDE3A (unknown origin) at 2 uM
[6] = molecular target: High affinity cGMP-specific 3',5'-cyclic phosphodiesterase 9A (Homo sapiens) (UniProt O76083); experiment: Inhibition of PDE9A (unknown origin) at 2 uM
Homo sapiens = species: Homo sapiens; experiment: Selectivity ratio of IC50 for PDE (unknown origin) to IC50 for PDE10A (unknown origin)
[7] = Ratio of drug uptake in brain to plasma in rat; type: ADME; settings: read-out: BPR
[8] = molecular target: Voltage-gated inwardly rectifying potassium channel KCNH2 (Homo sapiens, UniProt Q12809); experiment: Inhibition of human ERG
Rattus norvegicus = species: Rattus norvegicus; experiment: Antipsychotic activity in rat assessed as inhibition of amphetamine-stimulated locomotor activity; type: functional

T1 sequence (Q9Y233 whole entry): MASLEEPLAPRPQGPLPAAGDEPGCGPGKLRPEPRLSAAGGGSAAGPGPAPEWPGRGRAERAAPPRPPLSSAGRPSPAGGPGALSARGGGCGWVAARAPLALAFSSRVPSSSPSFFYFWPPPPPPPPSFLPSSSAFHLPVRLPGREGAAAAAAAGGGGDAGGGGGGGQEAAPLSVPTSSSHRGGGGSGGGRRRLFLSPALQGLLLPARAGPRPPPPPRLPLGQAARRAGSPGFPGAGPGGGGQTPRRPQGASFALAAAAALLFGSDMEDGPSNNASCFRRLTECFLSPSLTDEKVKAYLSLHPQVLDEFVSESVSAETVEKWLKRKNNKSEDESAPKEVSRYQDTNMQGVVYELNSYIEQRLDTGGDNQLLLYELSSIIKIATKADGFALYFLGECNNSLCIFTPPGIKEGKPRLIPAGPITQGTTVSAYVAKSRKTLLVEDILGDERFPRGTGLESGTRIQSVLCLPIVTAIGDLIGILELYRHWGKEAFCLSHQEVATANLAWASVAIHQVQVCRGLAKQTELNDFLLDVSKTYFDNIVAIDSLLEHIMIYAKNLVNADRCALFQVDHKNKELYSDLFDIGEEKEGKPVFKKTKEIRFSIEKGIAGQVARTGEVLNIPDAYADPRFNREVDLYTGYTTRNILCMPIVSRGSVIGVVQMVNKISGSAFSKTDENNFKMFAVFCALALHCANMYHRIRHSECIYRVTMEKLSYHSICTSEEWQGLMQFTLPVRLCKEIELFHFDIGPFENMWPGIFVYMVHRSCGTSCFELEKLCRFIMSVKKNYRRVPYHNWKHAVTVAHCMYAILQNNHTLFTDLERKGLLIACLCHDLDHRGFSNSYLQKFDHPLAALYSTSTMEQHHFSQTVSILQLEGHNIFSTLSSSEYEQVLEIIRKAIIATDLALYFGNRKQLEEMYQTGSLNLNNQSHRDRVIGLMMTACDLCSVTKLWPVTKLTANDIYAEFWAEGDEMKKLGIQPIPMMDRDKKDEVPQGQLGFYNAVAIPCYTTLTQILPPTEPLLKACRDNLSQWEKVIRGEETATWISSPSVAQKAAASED
3',5'-cyclic-AMP phosphodiesterase 4D (Homo sapiens), sequence (Q08499 whole entry): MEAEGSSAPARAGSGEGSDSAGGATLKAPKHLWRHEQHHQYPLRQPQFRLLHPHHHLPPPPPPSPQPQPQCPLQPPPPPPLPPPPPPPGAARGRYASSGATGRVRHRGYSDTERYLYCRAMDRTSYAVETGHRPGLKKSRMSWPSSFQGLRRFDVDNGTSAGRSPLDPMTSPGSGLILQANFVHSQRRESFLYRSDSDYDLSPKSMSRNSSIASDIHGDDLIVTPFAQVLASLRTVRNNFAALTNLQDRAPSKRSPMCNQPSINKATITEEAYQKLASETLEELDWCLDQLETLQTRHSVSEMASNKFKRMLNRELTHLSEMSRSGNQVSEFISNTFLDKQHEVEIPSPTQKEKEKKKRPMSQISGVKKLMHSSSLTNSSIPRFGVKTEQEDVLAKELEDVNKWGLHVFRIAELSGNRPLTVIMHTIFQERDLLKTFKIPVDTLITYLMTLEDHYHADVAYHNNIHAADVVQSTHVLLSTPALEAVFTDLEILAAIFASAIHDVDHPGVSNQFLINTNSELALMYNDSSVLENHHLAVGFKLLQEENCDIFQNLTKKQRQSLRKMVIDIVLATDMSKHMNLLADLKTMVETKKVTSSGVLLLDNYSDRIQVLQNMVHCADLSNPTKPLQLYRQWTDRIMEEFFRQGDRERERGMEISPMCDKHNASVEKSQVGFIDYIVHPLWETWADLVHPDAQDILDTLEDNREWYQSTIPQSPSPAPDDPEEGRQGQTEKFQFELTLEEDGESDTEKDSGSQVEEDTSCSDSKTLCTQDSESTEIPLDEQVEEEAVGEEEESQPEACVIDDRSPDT
High affinity cGMP-specific 3',5'-cyclic phosphodiesterase 9A (Homo sapiens), sequence (O76083 whole entry): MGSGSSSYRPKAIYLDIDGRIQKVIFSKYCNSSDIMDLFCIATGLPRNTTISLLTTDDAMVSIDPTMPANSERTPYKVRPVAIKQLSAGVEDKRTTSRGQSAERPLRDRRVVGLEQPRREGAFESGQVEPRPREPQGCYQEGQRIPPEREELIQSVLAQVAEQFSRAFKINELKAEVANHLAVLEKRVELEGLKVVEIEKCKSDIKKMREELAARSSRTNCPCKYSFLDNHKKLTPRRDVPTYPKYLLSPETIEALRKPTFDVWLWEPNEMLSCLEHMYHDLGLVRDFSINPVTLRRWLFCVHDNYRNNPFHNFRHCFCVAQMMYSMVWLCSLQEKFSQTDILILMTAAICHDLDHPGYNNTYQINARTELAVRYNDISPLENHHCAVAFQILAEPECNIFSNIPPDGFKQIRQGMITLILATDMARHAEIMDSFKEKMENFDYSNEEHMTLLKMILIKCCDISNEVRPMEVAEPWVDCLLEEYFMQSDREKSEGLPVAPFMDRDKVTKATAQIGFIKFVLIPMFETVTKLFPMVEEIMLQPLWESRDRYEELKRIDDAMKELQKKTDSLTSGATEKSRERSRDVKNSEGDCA
cGMP-inhibited 3',5'-cyclic phosphodiesterase 3A (Homo sapiens), sequence (Q14432 whole entry): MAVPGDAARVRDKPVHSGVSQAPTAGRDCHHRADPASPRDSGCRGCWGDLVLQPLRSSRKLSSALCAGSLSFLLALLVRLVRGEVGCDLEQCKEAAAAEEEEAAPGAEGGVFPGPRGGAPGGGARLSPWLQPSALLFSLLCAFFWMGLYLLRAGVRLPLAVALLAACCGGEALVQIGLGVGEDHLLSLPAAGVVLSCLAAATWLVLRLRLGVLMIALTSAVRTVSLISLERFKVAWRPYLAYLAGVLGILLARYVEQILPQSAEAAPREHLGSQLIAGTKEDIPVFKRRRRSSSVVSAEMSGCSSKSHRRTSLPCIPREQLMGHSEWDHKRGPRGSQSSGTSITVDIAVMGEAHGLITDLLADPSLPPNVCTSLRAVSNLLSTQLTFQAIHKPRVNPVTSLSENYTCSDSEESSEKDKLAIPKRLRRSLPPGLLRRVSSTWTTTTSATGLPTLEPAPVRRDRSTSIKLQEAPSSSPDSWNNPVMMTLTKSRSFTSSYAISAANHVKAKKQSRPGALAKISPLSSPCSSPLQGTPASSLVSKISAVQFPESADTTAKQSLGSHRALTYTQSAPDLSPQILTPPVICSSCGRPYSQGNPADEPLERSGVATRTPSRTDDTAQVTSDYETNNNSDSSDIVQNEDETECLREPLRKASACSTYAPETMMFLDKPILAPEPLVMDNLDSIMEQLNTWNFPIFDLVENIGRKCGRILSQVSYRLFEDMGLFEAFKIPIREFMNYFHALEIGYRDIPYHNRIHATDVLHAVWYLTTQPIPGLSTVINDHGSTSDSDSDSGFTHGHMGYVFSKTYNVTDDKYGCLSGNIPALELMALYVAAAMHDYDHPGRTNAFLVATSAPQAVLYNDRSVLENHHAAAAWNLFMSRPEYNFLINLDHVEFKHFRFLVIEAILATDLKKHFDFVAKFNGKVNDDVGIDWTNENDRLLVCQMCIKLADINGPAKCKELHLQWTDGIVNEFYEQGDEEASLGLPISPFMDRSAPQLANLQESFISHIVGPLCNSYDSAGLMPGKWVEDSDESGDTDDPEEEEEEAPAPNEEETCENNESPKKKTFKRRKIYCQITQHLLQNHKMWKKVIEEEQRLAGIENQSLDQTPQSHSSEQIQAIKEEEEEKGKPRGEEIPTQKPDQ
cGMP-dependent 3',5'-cyclic phosphodiesterase (Homo sapiens), sequence (O00408 whole entry): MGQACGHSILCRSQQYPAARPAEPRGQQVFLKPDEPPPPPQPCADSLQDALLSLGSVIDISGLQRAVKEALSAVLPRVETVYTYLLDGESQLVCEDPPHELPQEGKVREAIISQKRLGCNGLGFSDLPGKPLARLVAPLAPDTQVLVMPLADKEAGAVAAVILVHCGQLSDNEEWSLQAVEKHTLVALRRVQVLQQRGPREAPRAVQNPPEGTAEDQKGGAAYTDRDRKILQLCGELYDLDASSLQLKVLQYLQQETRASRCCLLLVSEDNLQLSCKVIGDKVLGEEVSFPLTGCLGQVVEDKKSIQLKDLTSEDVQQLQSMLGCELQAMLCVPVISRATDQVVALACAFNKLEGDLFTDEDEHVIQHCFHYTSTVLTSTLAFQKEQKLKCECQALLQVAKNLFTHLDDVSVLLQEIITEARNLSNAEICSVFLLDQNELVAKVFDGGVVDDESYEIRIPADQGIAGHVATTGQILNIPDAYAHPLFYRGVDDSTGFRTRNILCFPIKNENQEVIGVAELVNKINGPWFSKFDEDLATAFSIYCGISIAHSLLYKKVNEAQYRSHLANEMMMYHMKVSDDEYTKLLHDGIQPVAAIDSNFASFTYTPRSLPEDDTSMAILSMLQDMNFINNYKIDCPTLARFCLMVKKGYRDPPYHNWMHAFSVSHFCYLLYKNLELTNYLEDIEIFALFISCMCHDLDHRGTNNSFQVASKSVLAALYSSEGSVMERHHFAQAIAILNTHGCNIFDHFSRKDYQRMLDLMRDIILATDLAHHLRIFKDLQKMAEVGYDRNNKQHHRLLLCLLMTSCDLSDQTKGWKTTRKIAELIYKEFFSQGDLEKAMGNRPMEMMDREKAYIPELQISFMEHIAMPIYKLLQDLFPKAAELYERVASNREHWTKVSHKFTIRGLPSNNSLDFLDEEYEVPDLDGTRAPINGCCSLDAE

Row | Structure (SMILES) | pIC50 [1] | inhibition [2] [%] | also measured
1 | CN(C(=O)c1cnc(-c2cccnc2)s1)c1ccc(OCc2ccc3ccccc3n2)cc1 | 7.06 | 103 | –
2 | CCCCN(C(=O)c1ccncc1)c1ccc(OCc2ccc3ccccc3n2)cc1 | 6.18 | – | –
3 | CCN(C(=O)c1ccncc1)c1ccc(OCc2ccc3ccccc3n2)cc1 | 6.12 | – | –
4 | CN(C(=O)c1cc(-c2cccnc2)n[nH]1)c1ccc(OCc2ccc3ccccc3n2)cc1 | 7.89 | 101 | –
5 | CN(C(=O)c1ccc2ncsc2c1)c1ccc(OCc2nc3ccccc3o2)cc1 | 6.04 | 98 | –
6 | CN(C(=O)c1cc(-c2ccccn2)n[nH]1)c1ccc(OCc2ccc3ccccc3n2)cc1 | 7.92 | 100 | CLH (Liver microsomes): 2.4 L/min; inhibition [3]: 12%; inhibition [4]: 0%; inhibition [5]: 0%; inhibition [6]: 0%
7 | CN(C(=O)c1cccnc1)c1ccc(OCc2ccc3ccccc3n2)cc1 | – | 62 | –
8 | Cc1cccc(COc2ccc(N(C)C(=O)c3ccc4ncsc4c3)cc2)n1 | 5.80 | 90 | –
9 | CN(C(=O)c1cc(-c2ccccc2)n[nH]1)c1ccc(OCc2ccc3ccccc3n2)cc1 | 7.62 | 102 | –
10 | Cn1cc(-c2ccncc2)c(-c2ccc(OCc3ccc4ccccc4n3)cc2)n1 [MARDEPODECT] | – | – | CLH (Liver microsomes): 2.2 L/min; ED50 (Rattus norvegicus): 1.8 mg/kg
11 | CN(C(=O)c1ccc2ncsc2c1)c1ccc(OCc2nc3ccccc3n2C)cc1 | 7.21 | 104 | –
12 | CN(C(=O)c1cnc(-c2ccncc2)s1)c1ccc(OCc2ccc3ccccc3n2)cc1 | 7.06 | 101 | –
13 | CN(C(=O)c1ccccn1)c1ccc(OCc2ccc3ccccc3n2)cc1 | – | 27 | –
14 | CN(C(=O)c1cc(-c2ccncc2)n[nH]1)c1ccc(OCc2ccc3ccccc3n2)cc1 | 6.96 | 99 | –
15 | CN(C(=O)c1ccncc1)c1ccc(OCc2cn3ccccc3n2)cc1 | 5.80 | 88 | –
16 | CN(C(=O)c1ccc(-n2ccnc2)cc1)c1ccc(OCc2ccc3ccccc3n2)cc1 | 6.34 | 98 | –
17 | O=C(Nc1ccc(OCc2ccc3ccccc3n2)cc1)c1ccncc1 | – | 33 | –

Further lines, with some results ahead:

Row | pIC50 [1] | inhibition [2] [%] | Structure (SMILES) | also measured
18 | 7.03 | 105 | CN(C(=O)c1ccc(OCc2ccc3ccccc3n2)cc1)c1ccc2ncoc2c1 | –
19 | 6.40 | 100 | CN(C(=O)c1ccc(OCc2ccc3ccccc3n2)cc1)c1ccn2ncnc2c1 | –
20 | 7.51 | 101 | CN(C(=O)c1ccc2ncsc2c1)c1ccc(OCc2ccc3ccccc3n2)cc1 | CLH (Liver microsomes): 2.2 L/min; inhibition [3]: 1%; inhibition [6]: 5%
21 | 6.89 | 105 | CN(C(=O)c1ccc(OCc2ccc3ccccc3n2)cc1)c1ccc2nccn2c1 | –
22 | 6.60 | 80 | CN(C(=O)c1ccncc1)c1ccc(OCc2ccc3ccccc3n2)cc1 | CLH (Liver microsomes): 1.1 L/min; Ratio IC50 (Homo sapiens): > 50; inhibition [3]: 14%; Kp [7]: 0.6; pIC50 [8]: < 4.30; ED50 (Rattus norvegicus): 60 mg/kg; inhibition [4]: 4%; inhibition [5]: 16%; inhibition [6]: 22%
23 | 6.62 | 101 | CN(C(=O)c1ccc(OCc2ccc3ccccc3n2)cc1)c1ccc2ncnn2c1 | –
24 | 6.18 | 96 | CN(C(=O)c1ccccc1)c1ccc(OCc2ccc3ccccc3n2)cc1 | –
25 | 6.02 | 94 | CN(C(=O)c1ccc(OCc2ccc3ccccc3n2)cc1)c1ccccc1 | –
26 | 7.80 | 105 | CN(C(=O)c1ccc(OCc2ccc3ccccc3n2)cc1)c1ccc2ncsc2c1 | CLH (Liver microsomes): 6.1 L/min; inhibition [3]: 15%; inhibition [4]: 13%; inhibition [5]: 12%; inhibition [6]: 7%
27 | 6.85 | 101 | CN(C(=O)c1ccc(OCc2ccc3ccccc3n2)cc1)c1ccncc1 | –
